Experimental data taken from ChEMBL document CHEMBL3862033 (J Med Chem, 2016).

Each molecule was assayed against 5-hydroxytryptamine receptor 1E (Homo sapiens) (UniProt P28566) (assay: Displacement of [3H]5-HT from human 5-HT1E receptor expressed in HEK cell membranes at 10 uM incubated for 90 mins under dark condition by microbeta scintillation counting method relative to control). Settings: HEK293.
Chain of 5-hydroxytryptamine receptor 1E (Homo sapiens) (P28566 whole entry): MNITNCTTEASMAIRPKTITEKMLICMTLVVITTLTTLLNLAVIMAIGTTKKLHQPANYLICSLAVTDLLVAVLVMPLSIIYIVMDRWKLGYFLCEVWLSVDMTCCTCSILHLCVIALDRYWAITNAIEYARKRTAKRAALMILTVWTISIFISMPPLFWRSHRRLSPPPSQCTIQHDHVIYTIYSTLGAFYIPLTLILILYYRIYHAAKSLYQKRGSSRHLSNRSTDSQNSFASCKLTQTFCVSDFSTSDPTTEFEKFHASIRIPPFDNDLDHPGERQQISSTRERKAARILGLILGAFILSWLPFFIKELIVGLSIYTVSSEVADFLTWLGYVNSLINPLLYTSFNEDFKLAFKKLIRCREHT
With `OC[C@@]12C[C@@H]1[C@@H](n1cnc3c(NC(C4CC4)C4CC4)nc(Cl)nc31)[C@H](O)[C@@H]2O` the inhibition was less than 50%.
For `CCOC(=O)[C@@]12C[C@@H]1[C@@H](n1cnc3c(NC(C4CC4)C4CC4)nc(Cl)nc31)[C@H](O)[C@@H]2O`, the inhibition was less than 50%.
`COC(=O)[C@@]12C[C@@H]1[C@@H](n1cnc3c(NC(C4CC4)C4CC4)nc(Cl)nc31)[C@H](O)[C@@H]2O` was tested, and the inhibition was less than 50%.
In the case of `CNC(=O)[C@@]12C[C@@H]1[C@@H](n1cnc3c(NC(C4CC4)C4CC4)nc(Cl)nc31)[C@H](O)[C@@H]2O`, the inhibition is reported as less than 50%.

These molecules were tested against T1, Adenosine receptor A1 (Homo sapiens, UniProt P30542) (assay: Displacement of [3H]N6-phenylisopropyladenosine from recombinant human A1AR expressed in CHO cell membranes after 60 mins by liquid scintillation counting method). Settings: not given.
T1 sequence (P30542 whole entry): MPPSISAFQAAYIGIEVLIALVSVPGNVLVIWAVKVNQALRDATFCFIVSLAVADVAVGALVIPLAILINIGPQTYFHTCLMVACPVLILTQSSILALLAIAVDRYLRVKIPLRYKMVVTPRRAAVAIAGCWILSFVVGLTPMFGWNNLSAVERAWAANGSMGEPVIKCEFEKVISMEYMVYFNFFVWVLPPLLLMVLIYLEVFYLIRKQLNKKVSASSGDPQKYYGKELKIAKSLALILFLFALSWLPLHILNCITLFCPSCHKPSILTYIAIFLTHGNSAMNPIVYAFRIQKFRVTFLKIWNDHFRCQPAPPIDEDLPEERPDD
With `OC[C@@]12C[C@@H]1[C@@H](n1cnc3c(NC(C4CC4)C4CC4)nc(Cl)nc31)[C@H](O)[C@@H]2O` the Ki was 39 nM.
`CCOC(=O)[C@@]12C[C@@H]1[C@@H](n1cnc3c(NC(C4CC4)C4CC4)nc(Cl)nc31)[C@H](O)[C@@H]2O` was tested, and the Ki was 360 nM.
In the case of `COC(=O)[C@@]12C[C@@H]1[C@@H](n1cnc3c(NC(C4CC4)C4CC4)nc(Cl)nc31)[C@H](O)[C@@H]2O`, the Ki is reported as 437 nM.
`CNC(=O)[C@@]12C[C@@H]1[C@@H](n1cnc3c(NC(C4CC4)C4CC4)nc(Cl)nc31)[C@H](O)[C@@H]2O` was tested, and the Ki was 110 nM.

Each molecule was assayed against 5-hydroxytryptamine receptor 1B (Homo sapiens) (UniProt P28222) (assay: Displacement of [3H]5-CT from human 5-HT1BR expressed in HEK cell membranes at 10 uM incubated for 90 mins under dark condition by microbeta scintillation counting method relative to control). Settings: HEK293.
Chain of 5-hydroxytryptamine receptor 1B (Homo sapiens) (P28222 whole entry): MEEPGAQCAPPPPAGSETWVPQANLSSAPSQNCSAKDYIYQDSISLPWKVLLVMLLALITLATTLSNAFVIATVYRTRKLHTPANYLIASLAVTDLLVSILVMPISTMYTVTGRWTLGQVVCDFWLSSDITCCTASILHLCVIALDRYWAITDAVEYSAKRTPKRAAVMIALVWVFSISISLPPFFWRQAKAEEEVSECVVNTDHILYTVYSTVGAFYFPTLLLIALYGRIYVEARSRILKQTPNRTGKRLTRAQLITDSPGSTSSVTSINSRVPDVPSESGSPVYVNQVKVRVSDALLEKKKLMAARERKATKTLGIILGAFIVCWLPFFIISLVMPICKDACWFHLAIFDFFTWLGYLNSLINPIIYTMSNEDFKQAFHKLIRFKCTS
Work on `OC[C@@]12C[C@@H]1[C@@H](n1cnc3c(NC(C4CC4)C4CC4)nc(Cl)nc31)[C@H](O)[C@@H]2O` yielded an inhibition of less than 50%.
Molecule `CCOC(=O)[C@@]12C[C@@H]1[C@@H](n1cnc3c(NC(C4CC4)C4CC4)nc(Cl)nc31)[C@H](O)[C@@H]2O` has an inhibition of less than 50%.
`COC(=O)[C@@]12C[C@@H]1[C@@H](n1cnc3c(NC(C4CC4)C4CC4)nc(Cl)nc31)[C@H](O)[C@@H]2O` was tested, and the inhibition was less than 50%.
For `CNC(=O)[C@@]12C[C@@H]1[C@@H](n1cnc3c(NC(C4CC4)C4CC4)nc(Cl)nc31)[C@H](O)[C@@H]2O`, the inhibition was less than 50%.

Each molecule was assayed against T2, 5-hydroxytryptamine receptor 2B (Homo sapiens, UniProt P41595) (assay: biochemical). Settings: not given.
T2 sequence (P41595 whole entry): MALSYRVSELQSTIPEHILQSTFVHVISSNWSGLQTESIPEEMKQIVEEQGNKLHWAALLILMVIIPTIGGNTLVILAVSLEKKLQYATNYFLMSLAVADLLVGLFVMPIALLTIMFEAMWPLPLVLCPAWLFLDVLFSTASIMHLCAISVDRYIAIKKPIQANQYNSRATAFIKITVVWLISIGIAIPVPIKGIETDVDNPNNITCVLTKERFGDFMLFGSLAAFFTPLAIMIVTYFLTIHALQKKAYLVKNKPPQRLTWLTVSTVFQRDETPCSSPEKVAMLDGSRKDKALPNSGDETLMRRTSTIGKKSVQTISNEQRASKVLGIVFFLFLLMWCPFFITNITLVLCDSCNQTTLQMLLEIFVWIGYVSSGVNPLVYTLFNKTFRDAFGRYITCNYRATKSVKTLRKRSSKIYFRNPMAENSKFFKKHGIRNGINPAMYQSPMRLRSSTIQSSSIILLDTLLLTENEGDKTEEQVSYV
Type: cell-based, HEK293
`CCOC(=O)[C@@]12C[C@@H]1[C@@H](n1cnc3c(NC(C4CC4)C4CC4)nc(Cl)nc31)[C@H](O)[C@@H]2O` gave a Ki of 15 nM.
Work on `COC(=O)[C@@]12C[C@@H]1[C@@H](n1cnc3c(NC(C4CC4)C4CC4)nc(Cl)nc31)[C@H](O)[C@@H]2O` yielded a Ki of 19 nM.
`CNC(=O)[C@@]12C[C@@H]1[C@@H](n1cnc3c(NC(C4CC4)C4CC4)nc(Cl)nc31)[C@H](O)[C@@H]2O` showed a Ki of 23 nM.

These molecules were tested against T3, 5-hydroxytryptamine receptor 3A (Homo sapiens) (UniProt P46098) (assay: Displacement of [3H]GR65630 from human 5-HT3 receptor expressed in HEK-T cell membranes at 10 uM incubated for 90 mins under dark condition by microbeta scintillation counting method relative to control). Settings: not given.
T3 sequence (whole entry): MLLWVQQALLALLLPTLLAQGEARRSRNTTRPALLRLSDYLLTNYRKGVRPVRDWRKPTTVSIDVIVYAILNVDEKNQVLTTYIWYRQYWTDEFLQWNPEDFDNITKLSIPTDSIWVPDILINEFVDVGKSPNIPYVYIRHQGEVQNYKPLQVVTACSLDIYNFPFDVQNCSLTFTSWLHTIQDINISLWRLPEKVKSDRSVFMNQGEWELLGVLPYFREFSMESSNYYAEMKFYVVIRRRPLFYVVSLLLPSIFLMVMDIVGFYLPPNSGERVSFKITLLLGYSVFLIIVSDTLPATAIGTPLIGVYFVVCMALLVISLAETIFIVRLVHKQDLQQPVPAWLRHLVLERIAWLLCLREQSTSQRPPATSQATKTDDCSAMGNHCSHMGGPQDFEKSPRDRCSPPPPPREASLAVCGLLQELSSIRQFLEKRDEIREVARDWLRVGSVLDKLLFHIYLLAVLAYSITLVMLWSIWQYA
`OC[C@@]12C[C@@H]1[C@@H](n1cnc3c(NC(C4CC4)C4CC4)nc(Cl)nc31)[C@H](O)[C@@H]2O` showed an inhibition of less than 50%.
`CCOC(=O)[C@@]12C[C@@H]1[C@@H](n1cnc3c(NC(C4CC4)C4CC4)nc(Cl)nc31)[C@H](O)[C@@H]2O` showed an inhibition of less than 50%.
`COC(=O)[C@@]12C[C@@H]1[C@@H](n1cnc3c(NC(C4CC4)C4CC4)nc(Cl)nc31)[C@H](O)[C@@H]2O` was tested, and the inhibition was less than 50%.
In the case of `CNC(=O)[C@@]12C[C@@H]1[C@@H](n1cnc3c(NC(C4CC4)C4CC4)nc(Cl)nc31)[C@H](O)[C@@H]2O`, the inhibition is reported as less than 50%.

Each molecule was assayed against T2, 5-hydroxytryptamine receptor 2B (assay: not given). Settings: HEK293, at 10 µM.
`CCOC(=O)[C@@]12C[C@@H]1[C@@H](n1cnc3c(NC(C4CC4)C4CC4)nc(Cl)nc31)[C@H](O)[C@@H]2O` was tested, and the inhibition was greater than 50%.
For `COC(=O)[C@@]12C[C@@H]1[C@@H](n1cnc3c(NC(C4CC4)C4CC4)nc(Cl)nc31)[C@H](O)[C@@H]2O`, the inhibition was greater than 50%.
For `CNC(=O)[C@@]12C[C@@H]1[C@@H](n1cnc3c(NC(C4CC4)C4CC4)nc(Cl)nc31)[C@H](O)[C@@H]2O`, the inhibition was greater than 50%.

The molecules below were run against 5-hydroxytryptamine receptor 2A (Homo sapiens, UniProt P28223) (assay: Displacement of [3H]ketanserin from human 5-HT2A receptor expressed in HEK-T cell membranes incubated for 90 mins under dark condition by microbeta scintillation counting method). Settings: not given.
Chain of 5-hydroxytryptamine receptor 2A (P28223 whole entry): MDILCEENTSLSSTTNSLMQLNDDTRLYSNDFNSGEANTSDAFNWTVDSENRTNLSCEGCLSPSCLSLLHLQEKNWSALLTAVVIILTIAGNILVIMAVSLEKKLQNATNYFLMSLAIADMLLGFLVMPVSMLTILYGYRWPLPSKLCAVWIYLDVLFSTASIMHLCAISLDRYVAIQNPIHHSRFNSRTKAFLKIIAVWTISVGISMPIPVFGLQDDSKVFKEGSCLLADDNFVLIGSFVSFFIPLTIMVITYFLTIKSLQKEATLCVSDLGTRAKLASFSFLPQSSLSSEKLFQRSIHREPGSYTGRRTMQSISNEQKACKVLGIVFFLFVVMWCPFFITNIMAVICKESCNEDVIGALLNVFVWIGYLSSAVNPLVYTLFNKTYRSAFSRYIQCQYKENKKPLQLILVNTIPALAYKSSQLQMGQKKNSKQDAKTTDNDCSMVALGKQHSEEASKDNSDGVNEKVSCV
For `OC[C@@]12C[C@@H]1[C@@H](n1cnc3c(NC(C4CC4)C4CC4)nc(Cl)nc31)[C@H](O)[C@@H]2O`, the Ki was greater than 10000 nM.
Molecule `CCOC(=O)[C@@]12C[C@@H]1[C@@H](n1cnc3c(NC(C4CC4)C4CC4)nc(Cl)nc31)[C@H](O)[C@@H]2O` has a Ki greater than 10000 nM.
`COC(=O)[C@@]12C[C@@H]1[C@@H](n1cnc3c(NC(C4CC4)C4CC4)nc(Cl)nc31)[C@H](O)[C@@H]2O` gave a Ki greater than 10000 nM.
Work on `CNC(=O)[C@@]12C[C@@H]1[C@@H](n1cnc3c(NC(C4CC4)C4CC4)nc(Cl)nc31)[C@H](O)[C@@H]2O` yielded a Ki greater than 10000 nM.

Each molecule was assayed against T4, Adenosine receptor A3 (Homo sapiens, UniProt P0DMS8) (assay: Displacement of [125l]N 6-(4-amino-3-iodobenzyl)adenosine-5'-N-methyluronamide from recombinant human A3AR expressed in CHO cell membranes after 60 mins by gamma counting method). Settings: not given.
T4 sequence (P0DMS8 whole entry): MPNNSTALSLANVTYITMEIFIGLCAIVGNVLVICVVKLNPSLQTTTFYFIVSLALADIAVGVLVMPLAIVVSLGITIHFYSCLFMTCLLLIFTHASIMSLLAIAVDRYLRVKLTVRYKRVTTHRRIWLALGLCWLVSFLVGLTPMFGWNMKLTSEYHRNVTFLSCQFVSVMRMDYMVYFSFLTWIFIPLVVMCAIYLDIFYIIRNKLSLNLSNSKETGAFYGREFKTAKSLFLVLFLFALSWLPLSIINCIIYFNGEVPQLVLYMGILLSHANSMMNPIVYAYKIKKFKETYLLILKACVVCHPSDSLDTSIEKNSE
`OC[C@@]12C[C@@H]1[C@@H](n1cnc3c(NC(C4CC4)C4CC4)nc(Cl)nc31)[C@H](O)[C@@H]2O` gave a Ki of 1600 nM.
For `CCOC(=O)[C@@]12C[C@@H]1[C@@H](n1cnc3c(NC(C4CC4)C4CC4)nc(Cl)nc31)[C@H](O)[C@@H]2O`, the Ki was 236 nM.
Work on `COC(=O)[C@@]12C[C@@H]1[C@@H](n1cnc3c(NC(C4CC4)C4CC4)nc(Cl)nc31)[C@H](O)[C@@H]2O` yielded a Ki of 766 nM.
With `CNC(=O)[C@@]12C[C@@H]1[C@@H](n1cnc3c(NC(C4CC4)C4CC4)nc(Cl)nc31)[C@H](O)[C@@H]2O` the Ki was 34 nM.

These molecules were tested against 5-hydroxytryptamine receptor 1D (Homo sapiens) (UniProt P28221) (assay: Displacement of [3H]5-CT from human 5-HT1D receptor expressed in HEK-T cell membranes at 10 uM incubated for 90 mins under dark condition by microbeta scintillation counting method relative to control). Settings: not given.
Chain of 5-hydroxytryptamine receptor 1D (Homo sapiens) (P28221 whole entry): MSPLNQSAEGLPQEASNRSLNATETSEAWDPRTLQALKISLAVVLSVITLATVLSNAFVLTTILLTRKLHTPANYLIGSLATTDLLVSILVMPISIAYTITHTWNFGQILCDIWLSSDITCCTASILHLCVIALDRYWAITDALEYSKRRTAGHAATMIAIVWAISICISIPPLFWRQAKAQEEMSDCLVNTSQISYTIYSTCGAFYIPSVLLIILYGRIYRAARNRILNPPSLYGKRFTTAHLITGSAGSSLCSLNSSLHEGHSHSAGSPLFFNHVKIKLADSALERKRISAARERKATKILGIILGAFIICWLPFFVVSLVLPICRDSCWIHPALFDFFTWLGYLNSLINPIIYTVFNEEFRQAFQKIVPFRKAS
Molecule `OC[C@@]12C[C@@H]1[C@@H](n1cnc3c(NC(C4CC4)C4CC4)nc(Cl)nc31)[C@H](O)[C@@H]2O` has an inhibition of less than 50%.
`CCOC(=O)[C@@]12C[C@@H]1[C@@H](n1cnc3c(NC(C4CC4)C4CC4)nc(Cl)nc31)[C@H](O)[C@@H]2O` showed an inhibition of less than 50%.
For `COC(=O)[C@@]12C[C@@H]1[C@@H](n1cnc3c(NC(C4CC4)C4CC4)nc(Cl)nc31)[C@H](O)[C@@H]2O`, the inhibition was less than 50%.
Work on `CNC(=O)[C@@]12C[C@@H]1[C@@H](n1cnc3c(NC(C4CC4)C4CC4)nc(Cl)nc31)[C@H](O)[C@@H]2O` yielded an inhibition of less than 50%.

The molecules below were run against 5-hydroxytryptamine receptor 6 (Homo sapiens) (UniProt P50406) (assay: Displacement of [3H]LSD from human 5-HT6 receptor expressed in HEK cell membranes at 10 uM incubated for 90 mins under dark condition by microbeta scintillation counting method relative to control). Settings: HEK293.
Chain of 5-hydroxytryptamine receptor 6 (Homo sapiens) (P50406 whole entry): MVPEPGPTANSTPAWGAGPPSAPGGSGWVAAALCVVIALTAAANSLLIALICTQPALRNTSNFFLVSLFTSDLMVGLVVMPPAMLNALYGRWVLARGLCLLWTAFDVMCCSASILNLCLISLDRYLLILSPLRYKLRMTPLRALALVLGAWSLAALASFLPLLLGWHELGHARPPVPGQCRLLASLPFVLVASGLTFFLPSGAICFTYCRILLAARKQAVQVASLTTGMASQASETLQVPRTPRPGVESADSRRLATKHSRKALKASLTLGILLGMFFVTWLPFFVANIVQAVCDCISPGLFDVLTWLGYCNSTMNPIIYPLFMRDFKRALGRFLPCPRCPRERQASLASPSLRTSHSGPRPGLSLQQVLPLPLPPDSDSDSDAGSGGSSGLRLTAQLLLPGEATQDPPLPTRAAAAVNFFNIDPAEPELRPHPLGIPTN
`OC[C@@]12C[C@@H]1[C@@H](n1cnc3c(NC(C4CC4)C4CC4)nc(Cl)nc31)[C@H](O)[C@@H]2O` was tested, and the inhibition was less than 50%.
`CCOC(=O)[C@@]12C[C@@H]1[C@@H](n1cnc3c(NC(C4CC4)C4CC4)nc(Cl)nc31)[C@H](O)[C@@H]2O` showed an inhibition of less than 50%.
Work on `COC(=O)[C@@]12C[C@@H]1[C@@H](n1cnc3c(NC(C4CC4)C4CC4)nc(Cl)nc31)[C@H](O)[C@@H]2O` yielded an inhibition of less than 50%.
In the case of `CNC(=O)[C@@]12C[C@@H]1[C@@H](n1cnc3c(NC(C4CC4)C4CC4)nc(Cl)nc31)[C@H](O)[C@@H]2O`, the inhibition is reported as less than 50%.

These molecules were tested against T5, 5-hydroxytryptamine receptor 1A (Homo sapiens) (UniProt P08908) (assay: Displacement of [3H]WAY100635 from human 5-HT1AR expressed in CHO cell membranes at 10 uM incubated for 90 mins under dark condition by microbeta scintillation counting method relative to control). Settings: not given.
T5 sequence (whole entry): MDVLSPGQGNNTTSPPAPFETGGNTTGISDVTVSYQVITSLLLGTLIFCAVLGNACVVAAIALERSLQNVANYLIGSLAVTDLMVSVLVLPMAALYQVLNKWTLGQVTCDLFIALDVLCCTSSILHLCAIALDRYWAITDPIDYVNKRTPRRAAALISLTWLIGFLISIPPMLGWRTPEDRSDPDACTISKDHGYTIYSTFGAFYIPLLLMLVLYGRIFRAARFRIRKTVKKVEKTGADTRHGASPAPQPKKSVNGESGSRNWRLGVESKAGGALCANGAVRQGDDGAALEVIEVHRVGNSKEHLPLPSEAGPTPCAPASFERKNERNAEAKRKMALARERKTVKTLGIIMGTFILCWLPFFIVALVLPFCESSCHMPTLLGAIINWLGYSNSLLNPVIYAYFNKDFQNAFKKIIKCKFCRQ
`OC[C@@]12C[C@@H]1[C@@H](n1cnc3c(NC(C4CC4)C4CC4)nc(Cl)nc31)[C@H](O)[C@@H]2O` showed an inhibition of less than 50%.
`CCOC(=O)[C@@]12C[C@@H]1[C@@H](n1cnc3c(NC(C4CC4)C4CC4)nc(Cl)nc31)[C@H](O)[C@@H]2O` was tested, and the inhibition was less than 50%.
Molecule `COC(=O)[C@@]12C[C@@H]1[C@@H](n1cnc3c(NC(C4CC4)C4CC4)nc(Cl)nc31)[C@H](O)[C@@H]2O` has an inhibition of less than 50%.
`CNC(=O)[C@@]12C[C@@H]1[C@@H](n1cnc3c(NC(C4CC4)C4CC4)nc(Cl)nc31)[C@H](O)[C@@H]2O` showed an inhibition of less than 50%.
